US8809343B2, “Pyrimidine derivative, preparation method and use thereof” (Fudan University, priority 2008, dated 2014)

Test system: HIV-1 IIIB strain
Test: Anti-HIV activity: protection of HIV-infected MT-4 cells from virus-induced cell lesions
Assay type: cell-based
Details: HIV-1 IIIB, MT-4 cells, Table 1
Description: (§1) Anti-virus activity of cells in vitro was determined by Rega Institute for Medical of […] Katholleke University, consisting mainly: inhibitory activity towards HIV-infected MT-4 cells and cell toxicity. The method is described below: exert the compound on the HIV-infected ME-4 cells, and determine the protection of the drug on the cell lesions induced by HIV at varied HIV-infection intervals, calculate the half effective concentration IC50, the required concentration that protect 50% of cells from cell lesions induced by HIV. Toxicity determination is carried out in parallel with anti-HIV activity experiments, also in the cultured MT-4 cells, determine the CC50, the concentration that leads 50% of uninfected cells to cell lesions, and calculate the selectivity index SI=CC50/IC50 with the MTT method.
(§2) Anti-HIV activity of various compounds is monitored by the inhibitory efficiency of drugs on the cell lesions induced by HIV. Carry out cell culture with MT-4 cells. The adopted virus strains are HIV-1 IIIB strain and drug-resistant viral strain of […].
(§3) The detailed operation is as follows: the compound is dissolved with DMSO or water and diluted with phosphate buffer saline, 3×10^5 MT-4 cells are cultured with 100 μL various concentrations of compounds for 1 h, then 100 μL suitable virus dilution is added to the compound, and the cells are cultured at 37° C. for 1 h. After being washed for 3 times, the cells are suspended again in the culture media containing or not compounds individually. Subsequently, the cells are transferred to the atmosphere containing 5% CO2 and cultured for 7 days at 37° C., and culture media containing or not compounds are used to replace or supplement the culture solution on the third day after infection. Kinds of culture conditions should be duplicated. The cell lesions caused by virus are monitored with reverse light microscopy everyday. Typically, the virus dilution applied in the present experiments generally cause cell lesion on the fifth day after infection. […] It should be emphasized that, when the compound is poorly water-soluble and can only be dissolved in DMSO, the ratio of DMSO to water is generally below 10% (the final concentration of DMSO in MT-4 cell culture media is smaller than 2%). Because DMSO can influence the anti-virus activity of the tested compounds, blank tests on the solution containing the same concentration of DMSO should be conducted in parallel. Additionally, the final concentration of DMSO is far below the concentration required to influence the replication of HIV-1 in T cells.

SMILES | SI (Selectivity index, the ratio of CC50/IC50)
CC(C)Nc1cccnc1N1CCN(C(=O)c2cc3cc(NS(C)(=O)=O)ccc3[nH]2)CC1 [DLV, Delavirdine, reference compound] | 12

Same assay, conditions: HIV-1 IIIB, MT-4 cells, Table 3

SMILES | SI (Selectivity index, the ratio of CC50/IC50)
N#Cc1ccc(Nc2nc(Oc3ccccc3)c3ccccc3n2)cc1 [Compound 30] | >411
N#Cc1ccc(Nc2nc(Oc3ccc(Br)cc3)c3ccccc3n2)cc1 [Compound 26] | 894
Cc1ccc(Oc2nc(Nc3ccc(C#N)cc3)nc3ccccc23)cc1 [Compound 31] | 8091
Cc1cccc(Oc2nc(Nc3ccc(C#N)cc3)nc3ccccc23)c1 [Compound 27] | >563
Cc1ccccc1Oc1nc(Nc2ccc(C#N)cc2)nc2ccccc12 [Compound 25] | 1148
COc1ccccc1Oc1nc(Nc2ccc(C#N)cc2)nc2ccccc12 [Compound 29] | >6186
Cc1cc(Br)cc(Br)c1Oc1nc(Nc2ccc(C#N)cc2)nc2ccccc12 [Compound 32] | 8917
COc1ccc(Oc2nc(Nc3ccc(C#N)cc3)nc3ccccc23)cc1 [Compound 28] | >1810

Same assay, conditions: Human immunodeficiency virus 1, IIIB, MT4, read-out: EC50 HIV-1(IIIB)

SMILES | EC50
N#Cc1ccc(Nc2nc(Oc3ccccc3)c3ccccc3n2)cc1 [Compound 30] | 0.887 µM
N#Cc1ccc(Nc2nc(Oc3ccc(Br)cc3)c3ccccc3n2)cc1 [Compound 26] | 0.263 µM
Cc1ccc(Oc2nc(Nc3ccc(C#N)cc3)nc3ccccc23)cc1 [Compound 31] | 0.042 µM
Cc1cccc(Oc2nc(Nc3ccc(C#N)cc3)nc3ccccc23)c1 [Compound 27] | 0.625 µM
Cc1ccccc1Oc1nc(Nc2ccc(C#N)cc2)nc2ccccc12 [Compound 25] | 0.0937 µM
COc1ccccc1Oc1nc(Nc2ccc(C#N)cc2)nc2ccccc12 [Compound 29] | 0.03 µM
Cc1cc(Br)cc(Br)c1Oc1nc(Nc2ccc(C#N)cc2)nc2ccccc12 [Compound 32] | 0.0176 µM
COc1ccc(Oc2nc(Nc3ccc(C#N)cc3)nc3ccccc23)cc1 [Compound 28] | 0.187 µM

Same assay, conditions: Human immunodeficiency virus 1, IIIB, MT4; MT-4 cells, Table 1; read-out: EC50 HIV-1(IIIB)

EC50 | SMILES
0.072 µM | CC(C)Nc1cccnc1N1CCN(C(=O)c2cc3cc(NS(C)(=O)=O)ccc3[nH]2)CC1 [DLV, Delavirdine, reference compound]
0.0751 µM | Cc1ccnc2c1NC(=O)c1cccnc1N2C1CC1 [NVP, nevirapine, reference compound]

Same assay, conditions: Human immunodeficiency virus 1, IIIB, MT4; MT-4 cells, Table 2; read-out: EC50 WT(IIIB)

EC50 | SMILES
0.072 µM | CC(C)Nc1cccnc1N1CCN(C(=O)c2cc3cc(NS(C)(=O)=O)ccc3[nH]2)CC1 [DLV, Delavirdine, reference compound]
0.0751 µM | Cc1ccnc2c1NC(=O)c1cccnc1N2C1CC1 [NVP, nevirapine, reference compound]

Same assay, conditions: MT-4 cells, Table 1; read-out: EC50 HIV-1(IIIB)

SMILES | EC50
N#Cc1ccc(Nc2nccc(Oc3cc4ccc(C#N)cc4cc3Br)n2)cc1 [Compound 16] | 0.0011 µM
Cc1cnc(Nc2ccc(C#N)cc2)nc1Oc1cccc2cccnc12 [Compound 5] | 0.0058 µM
CNc1nc(Nc2ccc(C#N)cc2)nc(Oc2cccc3cccnc23)c1C [Compound 7] | 0.0158 µM
N#Cc1ccc(Nc2nccc(Oc3ccc4cc(C#N)ccc4c3)n2)cc1 [Compound 14] | 0.0033 µM
Cc1cc2ccccc2c(C)c1Oc1ccnc(Nc2ccc(C#N)cc2)n1 [Compound 12] | 0.0041 µM
CNc1nc(Nc2ccc(C#N)cc2)nc(Oc2ccc3ccccc3c2Br)c1C [Compound 17] | 0.0154 µM
CNc1nc(Nc2ccc(C#N)cc2)nc(Oc2ccc3cc(C#N)ccc3c2)c1C(C)C [Compound 19] | 0.0076 µM
COc1nc(Nc2ccc(C#N)cc2)nc(Oc2cccc3cccnc23)c1C [Compound 8] | 0.0178 µM
CC(C)c1c(Cl)nc(Nc2ccc(C#N)cc2)nc1Oc1ccc2cc(C#N)ccc2c1 [Compound 9] | 0.05 µM
Cc1c(Oc2ccnc(Nc3ccc(C#N)cc3)n2)ccc2ccccc12 [Compound 10] | 0.00346 µM
Cc1c(Cl)nc(Nc2ccc(C#N)cc2)nc1Oc1cccc2cccnc12 [Compound 6] | 0.0257 µM
N#Cc1ccc(Nc2nccc(Oc3ccc4cc(C#N)ccc4c3Br)n2)cc1 [Compound 15] | 0.0016 µM
N#Cc1ccc(Nc2nccc(Oc3ccc4cc(Br)ccc4c3Br)n2)cc1 [Compound 13] | 0.0046 µM

Same assay, conditions: WT(IIIB), Table 2

SMILES | SI (Selectivity index, the ratio of CC50/IC50)
CC(C)Nc1cccnc1N1CCN(C(=O)c2cc3cc(NS(C)(=O)=O)ccc3[nH]2)CC1 [DLV, Delavirdine, reference compound] | 12

Test system: MT-4 cells
Test: Cell toxicity in uninfected MT-4 cells (MTT method)
Assay type: cell-based
Details: Table 1
Description: as §1, §3

SMILES | CC50
N#Cc1ccc(Nc2nccc(Oc3cc4ccc(C#N)cc4cc3Br)n2)cc1 [Compound 16] | 55.4 µM
Cc1cnc(Nc2ccc(C#N)cc2)nc1Oc1cccc2cccnc12 [Compound 5] | 19.9 µM
CNc1nc(Nc2ccc(C#N)cc2)nc(Oc2cccc3cccnc23)c1C [Compound 7] | 36.5 µM
N#Cc1ccc(Nc2nccc(Oc3ccc4cc(C#N)ccc4c3)n2)cc1 [Compound 14] | 67.8 µM
Cc1cc2ccccc2c(C)c1Oc1ccnc(Nc2ccc(C#N)cc2)n1 [Compound 12] | 313 µM
CNc1nc(Nc2ccc(C#N)cc2)nc(Oc2ccc3ccccc3c2Br)c1C [Compound 17] | 177 µM
CNc1nc(Nc2ccc(C#N)cc2)nc(Oc2ccc3cc(C#N)ccc3c2)c1C(C)C [Compound 19] | 265 µM
COc1nc(Nc2ccc(C#N)cc2)nc(Oc2cccc3cccnc23)c1C [Compound 8] | 31.8 µM
CC(C)c1c(Cl)nc(Nc2ccc(C#N)cc2)nc1Oc1ccc2cc(C#N)ccc2c1 [Compound 9] | 436 µM
Cc1c(Oc2ccnc(Nc3ccc(C#N)cc3)n2)ccc2ccccc12 [Compound 10] | 114 µM
Cc1c(Cl)nc(Nc2ccc(C#N)cc2)nc1Oc1cccc2cccnc12 [Compound 6] | 44.7 µM
N#Cc1ccc(Nc2nccc(Oc3ccc4cc(C#N)ccc4c3Br)n2)cc1 [Compound 15] | 290 µM
N#Cc1ccc(Nc2nccc(Oc3ccc4cc(Br)ccc4c3Br)n2)cc1 [Compound 13] | 51.1 µM

Test system: not listed separately
Test: as above
Assay type: cell-based
Details: human, Table 1
Description: as §1, §3

SMILES | CC50 at 7 days
Cc1ccnc2c1NC(=O)c1cccnc1N2C1CC1 [NVP, nevirapine, reference compound] | 5.41 µM

Same assay, conditions: human, Table 3

SMILES | CC50 at 7 days
Cc1ccnc2c1NC(=O)c1cccnc1N2C1CC1 [NVP, nevirapine, reference compound] | > 15 µM

Same assay, conditions: human, uninfected MT-4 cells, Table 1

SMILES | CC50 at 7 days
CC(C)Nc1cccnc1N1CCN(C(=O)c2cc3cc(NS(C)(=O)=O)ccc3[nH]2)CC1 [DLV, Delavirdine, reference compound] | 0.86 µM

Same assay, conditions: human, uninfected MT-4 cells, Table 3

SMILES | CC50 at 7 days
N#Cc1ccc(Nc2nc(Oc3ccccc3)c3ccccc3n2)cc1 [Compound 30] | > 365 µM
N#Cc1ccc(Nc2nc(Oc3ccc(Br)cc3)c3ccccc3n2)cc1 [Compound 26] | 235 µM
Cc1ccc(Oc2nc(Nc3ccc(C#N)cc3)nc3ccccc23)cc1 [Compound 31] | 340 µM
Cc1cccc(Oc2nc(Nc3ccc(C#N)cc3)nc3ccccc23)c1 [Compound 27] | > 352 µM
Cc1ccccc1Oc1nc(Nc2ccc(C#N)cc2)nc2ccccc12 [Compound 25] | 108 µM
COc1ccccc1Oc1nc(Nc2ccc(C#N)cc2)nc2ccccc12 [Compound 29] | > 186 µM
Cc1cc(Br)cc(Br)c1Oc1nc(Nc2ccc(C#N)cc2)nc2ccccc12 [Compound 32] | 157 µM
COc1ccc(Oc2nc(Nc3ccc(C#N)cc3)nc3ccccc23)cc1 [Compound 28] | > 3400 µM

Test system: drug-resistant viral strain of L103N+Y181C
Test: Anti-HIV activity in MT-4 cells, drug-resistant viral strain
Assay type: cell-based, HIV-1
Details: MT-4 cells, Table 1; read-out: EC50 103N + 181C
Description: as §1, §2, §3

SMILES | EC50
N#Cc1ccc(Nc2nccc(Oc3cc4ccc(C#N)cc4cc3Br)n2)cc1 [Compound 16] | > 56.5 µM
N#Cc1ccc(Nc2nccc(Oc3ccc4cc(C#N)ccc4c3)n2)cc1 [Compound 14] | 6.3 µM
Cc1cc2ccccc2c(C)c1Oc1ccnc(Nc2ccc(C#N)cc2)n1 [Compound 12] | 1.17 µM
CNc1nc(Nc2ccc(C#N)cc2)nc(Oc2ccc3ccccc3c2Br)c1C [Compound 17] | 6.15 µM
CNc1nc(Nc2ccc(C#N)cc2)nc(Oc2ccc3cc(C#N)ccc3c2)c1C(C)C [Compound 19] | 4.58 µM
CC(C)c1c(Cl)nc(Nc2ccc(C#N)cc2)nc1Oc1ccc2cc(C#N)ccc2c1 [Compound 9] | 3.36 µM
Cc1c(Oc2ccnc(Nc3ccc(C#N)cc3)n2)ccc2ccccc12 [Compound 10] | 11 µM
N#Cc1ccc(Nc2nccc(Oc3ccc4cc(C#N)ccc4c3Br)n2)cc1 [Compound 15] | 0.24 µM
N#Cc1ccc(Nc2nccc(Oc3ccc4cc(Br)ccc4c3Br)n2)cc1 [Compound 13] | > 50.4 µM
